pIC50: −log10 of the molar value. Read-outs that look alike come from different tables or passages of the source. Non-standard residues stand in square brackets, D forms with d. Residues, ends and D or L forms follow the SMILES beside them. *: point of attachment. Aoe = N[C@@H](CCCCCC(=O)[C@@H]1CO1)C(=O)O; Asu = N[C@@H](CCCCCC(=O)O)C(=O)O; dPip = O=C(O)[C@H]1CCCCN1; Boc = CC(C)(C)OC(=O)*; NHOH = ON*
Tests used:
B16/BL6 cells = assay: MHC class-I molecule expression promoting activity; format: cell-based, mouse; settings: for conc. for 2-fold expression (nM) mean: mean of a plurality of assays; for conc. for 2-fold expression (nM) mean / Twice Promoting Concentration Cx2: 72 hours; for MHC class-I molecule expression promoting action: FIGS. 3 and 4, dependence on concentration of addition; for Twice Promoting Concentration Cx2: concentration at which MHC class-I expression is twice that without addition
[1] = biological target: Mouse histone deacetylase; format: biochemical
Experimental: In an enzyme system using a radio-labelled acetylated histone as a substrate, histone deacetylase enzyme inhibiting activity was evaluated. The basic conditions were in accordance with the method of Yoshida et al. (J. Biol. Chem., 265, 17174-17179, 1990).
Mouse histone deacetylase to be used was partially purified from FM3A cells. Cells were suspended in HDA buffer (15 mM potassium phosphate, 5% glycerol, 0.2 mM EDTA, pH 7.5), homogenized and centrifuged (35000×g, 10 min) to collect the nuclei which in turn were homogenized in the same buffer containing 1 M (NH4)2SO4. After ultrasonic disruption and centrifugation, the concentration of (NH4)2SO4 in the supernatant was increased to 3.5 M to precipitate deacetylase enzyme proteins. This precipitate was redissolved in HDA buffer, dialyzed against HDA buffer, applied to DEAE-cellulose column and eluted in NaCl gradient. Active fractions were used as a histone deacetylase enzyme solution.
As a substrate, [^3H]acetyl histone was used. In a culture solution of FM3A cells in the presence of 5 mM sodium n-butyrate, [^3H]acetate was added, followed by incubation for 30 minutes to radio-label the histone. The histone was prepared in a conventional manner and used as a substrate solution.
An assay was performed by adding a compound to be tested at a given concentration while using a no-addition control group, and by incubating the substrate solution and the enzyme solution at 37° C. for 10 minutes (reaction volume, 100 μl). The enzyme reaction was stopped by adding 10 μl of concentrated hydrochloric acid and the excised [^3H]acetate was extracted with ethyl acetate for radioactivity measurement. The inhibiting activity was expressed by a concentration at which the enzyme activity in the control group was inhibited by 50% (50% inhibiting concentration).

[2] = test system: mouse malignant melanoma B16/BL6 cell line; format: cell-based; settings: 72 hours; read-out: 50% proliferation inhibiting concentration B16/BL6 (nM) mean
Description: (§1) In order to verify the action of the cyclic tetrapeptide derivative according to the present invention in inhibiting cell proliferation in cancerized cells, the action on the proliferation of the aforementioned B16/BL6 cells was investigated. The evaluation of cell proliferation rates was done utilizing a commercially available measuring kit, specifically, from Promega under the trade name CellTiter 96 Aqueous Non-Radioactive Proliferation Assay Kit. In the measuring kit, the amount of products through reduction of a reagent tetrazolium compound (3-(4,5-dimethylthiazol-2-yl)-5-(3-carboxymethoxyphenyl)-2-(4-sulfophenyl)-2H-tetrazolium, inner salt; MTS) by viable animal cells is determined by detecting spectrophotometrically the color generated from the products. Since the amount of products is proportional to the amount of viable cells, this kit is utilized to evaluate the amount of viable cells.
According to the procedure of Test Example 1, B16/BL6 cells are inoculated in a 96 well microplate and cultured for 24 hours. […] Thereafter, culture is continued for additional 48 hours and 20 μl of a reagent solution in the aforementioned CellTiter 96 Aqueous Non-Radioactive Proliferation Assay Kit is then added. After incubation is continued at 37° C. for 1 hour, the amount of color generation is measured as an absorbance at 490 n musing a microplate reader.
(§2) The amount of cell proliferation of a group to which a compound to be tested is added is expressed in a relative value as compared to the standard cell proliferation (100%) in a control group to which no compound to be tested is added. For each compound tested, the amounts of cell proliferation were measured at different concentrations of addition and the dependence of the quantitative cell proliferation on the concentration of addition was investigated.
(§3) The test method was in accordance with the above-mentioned procedure, except that the period of incubation after the addition of a compound was 72 hours.

[3] = test system: colon cancer Colon26 cell line; assay: Cell proliferation inhibition (72 hours); format: cell-based, mouse; settings: read-out: 50% proliferation inhibiting concentration Colon 26 (nM) mean
Description: as §1
(§4) According to the procedure of Test Example 1, B16/BL6 cells are inoculated in a 96 well microplate and cultured for 24 hours. Then, 10 μl of a solution of the source solution of a compound to be tested which has been diluted to a predetermined amount per well is added. Thereafter, culture is continued for additional 48 hours and 20 μl of a reagent solution in the aforementioned CellTiter 96 Aqueous Non-Radioactive Proliferation Assay Kit is then added. After incubation is continued at 37° C. for 1 hour, the amount of color generation is measured as an absorbance at 490 n musing a microplate reader.
as §2, with “investigated. From the results, a concentration of addition at which the amount of cell proliferation was inhibited by 50% relative to the amount of cell proliferation in the control group without addition was determined.” for “investigated.”
as §3
(§5) As illustrative examples, results are shown for an evaluation using mouse malignant melanoma B16/BL6 and B16 cell lines; leukemia L1210 cell line, colon cancer Colon26 cell line, and liver cancer MH134 cell line as cancer cells. For the cell proliferation inhibiting action of each compound tested for these cancer cells, 50% proliferation inhibiting concentrations are shown in Table 4.

leukemia L1210 cell line = assay: Cell proliferation inhibition (72 hours); format: cell-based, mouse; settings: read-out: 50% proliferation inhibiting concentration L1210 (nM) mean
Description: as §1, §4
as §2, with “investigated. From the results, a concentration of addition at which the amount of cell proliferation was inhibited by 50% relative to the amount of cell proliferation in the control group without addition was determined.” for “investigated.”
as §3, §5

[4] = test system: liver cancer MH134 cell line; assay: Cell proliferation inhibition (72 hours); format: cell-based, mouse; settings: read-out: 50% proliferation inhibiting concentration MH134 (nM) mean
Description: as §1, §4
as §2, with “investigated. From the results, a concentration of addition at which the amount of cell proliferation was inhibited by 50% relative to the amount of cell proliferation in the control group without addition was determined.” for “investigated.”
as §3, §5

[5] = test system: mouse malignant melanoma B16 cell line; assay: Cell proliferation inhibition (72 hours); format: cell-based; settings: read-out: 50% proliferation inhibiting concentration B16 (nM) mean
Description: as §1, §4
as §2, with “investigated. From the results, a concentration of addition at which the amount of cell proliferation was inhibited by 50% relative to the amount of cell proliferation in the control group without addition was determined.” for “investigated.”
as §3, §5

histone deacetylase = assay: Histone deacetylase enzyme inhibiting activity, synthetic peptide substrate; format: biochemical, mouse; settings: enzyme from B16/BL6 cells; [3H]acetylated histone H4 peptide; 37° C. 3 hours
Experimental: The preparation of histone deacetylase was performed essentially according to the method of Yoshida et al. (J. Biol. Chem., 265,17174-17179, 1990). The enzyme to be used was partially purified from B16/BL6 cells. The cells were suspended in HDA buffer (15 mM potassium phosphate, 5% glycerol, 0.2 mM EDTA, […], pH 7.5), homogenized and centrifuged (2500×g, 10 min) to collect the nuclei, which in turn were homogenized in the same buffer containing 1 M (NH4)2SO4. After ultrasonic disruption and centrifugation, the concentration of (NH4)2SO4 in the collected supernatant was increased to 3.5 M to precipitate histone deacetylase. This precipitate was redissolved in HDA buffer, subjected to gel filtration to replace the solvent with HDA buffer, and used as a crude histone deacetylase enzyme solution.
As a substrate, a synthetic substrate peptide, [^3H]acetylated histone H4 peptide was used. This [^3H]acetylated histone H4 peptide was obtained by synthesizing the N-terminal peptide of histone H4; […] (the C-terminal being cysteine) and radio-acetylating with ^3H -acetic anhydride.
An assay was performed by incubating the synthetic substrate solution and the enzyme solution at 37° C. for 3 hours in the presence of a compound to be tested (reaction volume, 100 μl). The reaction was stopped by adding 25 μl of 1 M HCl and 0.2 M acetic acid and [^3H]acetate excised by the enzyme reaction was extracted with ethyl acetate for radioactivity measurement. As a control group, the same procedure was repeated without addition of any test compound to the reaction system. The inhibiting activity was expressed by a concentration at which the histone deacetylase enzyme activity in the control group was inhibited by 50% (50% inhibiting concentration).

[6] = enzyme from FM3A cells, [3H]acetyl histone, 37° C. 10 minutes

Compound	conc. for 2-fold expression (nM) mean (B16/BL6 cells) [nM]	pIC50 [1, 6]	IC50 [2] [nM]	IC50 [3] [nM]	IC50 (leukemia L1210 cell line) [nM]	IC50 [4] [nM]	IC50 [5] [nM]	pIC50 (histone deacetylase)	MHC class-I molecule expression promoting action (B16/BL6 cells)	Twice Promoting Concentration Cx2 (B16/BL6 cells) [µM]	pIC50 [1]	MHC class-I molecule expression promoting activity (B16/BL6 cells; allowed to act on animal cells (summary statement))
CC(=O)NCCCC[C@@H]1NC(=O)[C@H]2CCCN2C(=O)[C@H](Cc2ccccc2)NC(=O)[C@H](Cc2ccccc2)NC1=O [HDA-6, cyclo(-L-Lys(Ac)-L-Phe-L-Phe-D-Pro-)] (cyclo(FF[dP]K(Ac)))	240000	4.56	–	–	–	–	–	–	–	–	–	–
C[C@@H]1NC(=O)[C@H]2CCCN2C(=O)[C@H](CCCCCC(=O)NO)NC(=O)[C@@H](C)NC1=O [HDA-13, cyclo(-L-Asu(NHOH)-D-Pro-L-Ala-D-Ala-)] (cyclo(A[dA][Asu](NHOH)[dP]))	406	–	866	11000	2770	7920	15400	–	–	–	–	–
O=C(CCCCCC[C@@H]1NC(=O)[C@H]2CCCN2C(=O)[C@H](Cc2ccccc2)NC(=O)[C@H](Cc2ccccc2)NC1=O)NO [HDA-17, cyclo(-Aaz(NHOH)-Phe-Phe-D-Pro-)]	990	7.70	1260	29300	7380	19900	23500	7.61	exhibited MHC class-I molecule expression promoting action	1.12	–	–
O=C(CCCC[C@@H]1NC(=O)[C@H]2CCCN2C(=O)[C@H](Cc2ccccc2)NC(=O)[C@H](Cc2ccccc2)NC1=O)NO [HDA-18, cyclo(-Api(NHOH)-Phe-Phe-D-Pro-)]	10900	6.41	59300	> 100000	> 100000	> 100000	> 100000	6.82	exhibited MHC class-I molecule expression promoting action	11.6	–	–
O=C(CCCCC[C@@H]1NC(=O)[C@H]2CCCN2C(=O)[C@H](Cc2ccccc2)NC(=O)[C@@H](Cc2ccccc2)NC1=O)NO [HDA-27, cyclo(-L-Asu(NHOH)-D-Phe-L-Phe-D-Pro-)] (cyclo([Asu](NHOH)[dF]F[dP]))	3.01	–	18	277	53	236	309	8.46	–	–	8.84	–
CC(C)C[C@@H]1NC(=O)[C@@H](Cc2ccccc2)NC(=O)[C@H](CCCCCC(=O)NO)NC(=O)[C@@H]2CCCN2C1=O [HDA-28, cyclo(-L-Asu(NHOH)-D-Phe-L-Leu-L-Pro-)] (cyclo([Asu](NHOH)[dF]LP))	80.2	8.22	470	7370	1330	4830	3820	–	–	–	–	–
CC(C)C[C@@H]1NC(=O)[C@@H](Cc2ccccc2)NC(=O)[C@H](CCCCCC(=O)NO)NC(=O)[C@H]2CCCN2C1=O [HDA-29, cyclo(-L-Asu(NHOH)-D-Phe-L-Leu-D-Pro-)] (cyclo([Asu](NHOH)[dF]L[dP]))	5.41	8.80	15.8	198	43.8	176	293	–	–	–	–	–
CC(C)(C)OC(=O)NCCCC[C@@H]1NC(=O)[C@H](CCCCCC(=O)NO)NC(=O)[C@H]2CCCN2C(=O)[C@H](Cc2ccccc2)NC1=O [HDA-32, cyclo(-L-Asu(NHOH)-L-Lys(Boc)-L-Phe-D-Pro-)] (cyclo([Asu](NHOH)K(Boc)F[dP]))	773	8.31	–	–	–	–	–	–	–	–	–	–
CCCC(=O)[O-].[Na+] [Sodium n-butyrate, reference compound]	–	–	–	–	–	–	–	–	–	–	3.92	–
O=C1N[C@@H](Cc2ccccc2)C(=O)N2CCCC[C@@H]2C(=O)N[C@@H](CCCCCC(=O)[C@@H]2CO2)C(=O)N[C@H]1Cc1ccccc1 [trapoxin A, reference compound] (cyclo([Aoe]FF[dPip]))	3.59	9.33	–	–	–	–	–	–	–	–	–	exhibit the MHC class-I molecule expression promoting activity

— patent US6399568B1, “Cyclic tetrapeptide derivatives and medicinal use thereof” (Japan Energy Corporation, priority 1997, dated 2002)
